Results as given in PMC10257182, “Discovery of senolytics using machine learning” (Nature Communications, 2023).
“And” between values parts separate entries of the source, which are not always exact repeats. Equal values may be shown once. Read-outs that look alike come from different tables or passages of the source.

Tests used:
Format in all cases: cell-based, human
[1] = system: NOXA mRNA in IMR90 cells at passage 27; test: NOXA mRNA expression by RT-qPCR, replicative senescence; details: for NOXA mRNA expression, group mean (Test details, Mean 2): Replicative Senescence (RS) cells, mean of n=3; for NOXA mRNA expression, group mean (Test details, Mean 2) / NOXA mRNA expression: 10 nM; for NOXA mRNA expression: Replicative Senescence cells, relative to Control DMSO = 1, individual replicate values
Method: Total RNA was isolated using RNAeasy kit (Quiagen). cDNA was generated with reverse transcriptase iScript (Bio-Rad). RT-qPCR was performed using SYBR Select Master Mix (Applied Biosystems) in OneStepPlus detection system (Applied Biosystems). Oligos for amplification were: NOXA Fw-[…] and Rv-[…]; b-ACTIN Fw-[…] and Rv-[…]; IL1a Fw-[…] and Rv- […]; IL1b Fw-[…] and Rv- […]; IL8 Fw-[…] and Rv-[…]; p16 Fw-CGGTCGGAGGCCGATCCAG and Rv- […]; p21Fw-[…] and Rv- […].

[2] = system: senescent IMR90 ER:RAS cells (4-OHT-induced); test: Nuclei count (Hoechst, high content imaging) senolytic assay, oncogene-induced senescence (OIS) model, senescent cells; details: for viability at 10 µM / viability at 4.677 µM / viability at 2.188 µM / viability at 1 µM / viability at 0.4677 µM / viability at 0.2188 µM / viability at 0.1 µM / viability at 0.04677 µM / viability at 0.02188 µM / viability at 0.01 µM / IC50: Homo sapiens; for IC50: IMR-90, OIS model, 4-OHT-induced IMR90 ER:RAS, nuclei count, 72 h; for dose showing the clearest / optimal senolytic effect: Hoechst nuclei count, marginal effect on normal cells
How it was run: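 IMR90 ER:RAS (p14), ±4-OHT 100 nM; cpd 10 nM–10 μM, 10-pt […], 72 h, n=3. Fix formaldehyde, Triton X-100, Hoechst 2 μg/ml final. Readout: imaged nuclei count vs untreated; ouabain positive control.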

[3] = system: A549 cells treated with 100 μM etoposide; test: Cell survival assay using crystal violet staining, TIS, senescent cells; details: fraction of Control DMSO = 1, n 15
control A549 cells = test: Cell survival assay using crystal violet staining, TIS, control cells; details: for % Cell Survival: Control (no etoposide) cells, Control DMSO = 100, single replicates (SUP FIG 9E)
Method: Equal numbers of control and senescent cells were plated at high density on multiwell plates just before senolytic treatment addition. After treatment, cells were fixed on 0.5% glutaraldehyde (Sigma) and then dried at RT overnight. Then, wells were stained with crystal violet solution for 3 h, washed and dried. Once they were completely dry, the plates were scanned for records. Quantification was performed extracting the staining with 1% acetic acid and measuring the final solution by absorbance at 595 nm. […]
cells per condition is indicated. (d) Cell survival assay measuring the senolytic effect in lung cancer senescent cells. The panels show a representative crystal violet staining of tissue culture dishes of confluent A549 cells treated with 100 μM etoposide and control A549 cells, all treated with 10 nM oleandrin, ouabain and periplocin, and DMSO as vehicle control for 72 hours as indicated. (e) Graph representing the cell survival by quantification of the crystal violet staining of the experiment described in (d), as described in Methods. Data represented as individual datapoints, and bars and error bars representing the mean ± SEM of 14 independent experiments. Statistical analysis was performed using a one-way ANOVA (Tukey’s test) for multiple comparisons. […]
Scale bars represent 100 μm. ns = not significant, * = p < 0.05, ** = p < 0.01, *** = p < 0.001, **** = p < 0.0001. Source data are provided as a Source Data file.

[4] = IMR-90, 72 h, Senescent, log (dose) [M] -5, 72 h, mean n=3 (Fig 3C), read-out: Mean % Cell Survival
[5] = IMR-90, 72 h, Senescent, log (dose) [M] -5.33, 72 h, mean n=3 (Fig 3C), read-out: Mean % Cell Survival
[6] = IMR-90, 72 h, Senescent, log (dose) [M] -5.66, 72 h, mean n=3 (Fig 3C), read-out: Mean % Cell Survival
[7] = IMR-90, 72 h, Senescent, log (dose) [M] -6, 72 h, mean n=3 (Fig 3C), read-out: Mean % Cell Survival
[8] = IMR-90, 72 h, Senescent, log (dose) [M] -6.33, 72 h, mean n=3 (Fig 3C), read-out: Mean % Cell Survival
[9] = IMR-90, 72 h, Senescent, log (dose) [M] -6.66, 72 h, mean n=3 (Fig 3C), read-out: Mean % Cell Survival
[10] = IMR-90, 72 h, Senescent, log (dose) [M] -7, 72 h, mean n=3 (Fig 3C), read-out: Mean % Cell Survival
[11] = IMR-90, 72 h, Senescent, log (dose) [M] -7.33, 72 h, mean n=3 (Fig 3C), read-out: Mean % Cell Survival
[12] = IMR-90, 72 h, Senescent, log (dose) [M] -7.66, 72 h, mean n=3 (Fig 3C), read-out: Mean % Cell Survival
[13] = IMR-90, 72 h, Senescent, log (dose) [M] -8, 72 h, mean n=3 (Fig 3C), read-out: Mean % Cell Survival

SMILES | NOXA mRNA expression, group mean (Test details, Mean 2) [1] | NOXA mRNA expression [1] | viability at 10 µM [2, 4] [%] | viability at 4.677 µM [2, 5] [%] | viability at 2.188 µM [2, 6] [%] | viability at 1 µM [2, 7] [%] | viability at 0.4677 µM [2, 8] [%] | viability at 0.2188 µM [2, 9] [%] | viability at 0.1 µM [2, 10] [%] | viability at 0.04677 µM [2, 11] [%] | viability at 0.02188 µM [2, 12] [%] | viability at 0.01 µM [2, 13] [%] | IC50 [2] [nM] | dose showing the clearest / optimal senolytic effect ([2]; OIS IMR90 ER:RAS) [nM] | Cell survival, mean (Test details, Mean 2) [3] | % Cell Survival (control A549 cells) | further results
CO[C@H]1C[C@H](O[C@H]2CC[C@@]3(C)[C@H](CC[C@@H]4[C@@H]3CC[C@]3(C)[C@@H](C5=CC(=O)OC5)[C@@H](OC(C)=O)C[C@]43O)C2)O[C@@H](C)[C@@H]1O [Oleandrin, oleandrin] | 56.63 | 62.46 and 54.37 and 53.07 | 2.6 | 4.06 | 5.74 | 4.49 | 5.02 | 3.64 | 3.83 | 6.59 | 13.4 | 87.9 | 14 | 21.5 | 0.3827 | 99.6% and 145% and 133.8% and 119.3% and 135.9% and 111.6% and 113.5% and 93% and 97.3% and 116% and 109.5% and 116.3% and 95.4% and 109% | NOXA mRNA expression, in words ([1]; replicative senescence IMR90, 10 nM (Fig. 5d)): significant increase; viability at 10 µM ([2]; IMR-90, senescence, log (dose) [M] -5, individual replicates (Fig 3D), read-out: % Cell Survival): 3.12%; viability at 4.677 µM ([2]; IMR-90, senescence, log (dose) [M] -5.33, individual replicates (Fig 3D), read-out: % Cell Survival): 4.77%; viability at 2.188 µM ([2]; IMR-90, senescence, log (dose) [M] -5.66, individual replicates (Fig 3D), read-out: % Cell Survival): 7.52%; viability at 1 µM ([2]; IMR-90, senescence, log (dose) [M] -6, individual replicates (Fig 3D), read-out: % Cell Survival): 5.5%; viability at 0.4677 µM ([2]; IMR-90, senescence, log (dose) [M] -6.33, individual replicates (Fig 3D), read-out: % Cell Survival): 4.4%; viability at 0.2188 µM ([2]; IMR-90, senescence, log (dose) [M] -6.66, individual replicates (Fig 3D), read-out: % Cell Survival): 4.04%; viability at 0.1 µM ([2]; IMR-90, senescence, log (dose) [M] -7, individual replicates (Fig 3D), read-out: % Cell Survival): 4.95%; viability at 0.02188 µM ([2]; IMR-90, senescence, log (dose) [M] -7.66, individual replicates (Fig 3D), read-out: % Cell Survival): 12.3%; senolytic activity (in words) ([2]; experimental screen, OIS IMR90 ER:RAS): clear senolytic action; senolytic index (SI) ([2]; ratio between the IC50 of control cells and the IC50 of senescent cells, OIS IMR90 ER:RAS): 5.8; cellular density in non-senescent control cultures, in words (control A549 cells; A549 control, 10 nM, 72 h): unchanged
C[C@@H]1O[C@@H](O[C@H]2C[C@@H](O)[C@]3(CO)[C@H]4[C@H](O)C[C@]5(C)[C@@H](C6=CC(=O)OC6)CC[C@]5(O)[C@@H]4CC[C@]3(O)C2)[C@H](O)[C@H](O)[C@H]1O [Ouabain, ouabain, reference compound] | 15.44 | 23.42 and 22.01 and 0.88 | 2.57 | 2.79 | 3.51 | 4.22 | 4.07 | 2.69 | 4.75 | 11.8 | 73 | 89.4 | 28 | 46.4 | 0.9058 | 87.7% and 109.8% and 97.7% and 103.7% and 127.7% and 98.4% and 119.9% and 122.1% and 126.3% and 124.6% and 125% and 96.4% | viability at 10 µM ([2]; IMR-90, senescence cells, log (dose) [M] -5, read-out: % Cell Survival): 2.5%; viability at 4.677 µM ([2]; IMR-90, senescence cells, log (dose) [M] -5.33, read-out: % Cell Survival): 2.14%; viability at 2.188 µM ([2]; IMR-90, senescence cells, log (dose) [M] -5.66, read-out: % Cell Survival): 4.05%; viability at 1 µM ([2]; IMR-90, senescence cells, log (dose) [M] -6, read-out: % Cell Survival): 4.29%; viability at 0.4677 µM ([2]; IMR-90, senescence cells, log (dose) [M] -6.33, read-out: % Cell Survival): 5.48%; viability at 0.2188 µM ([2]; IMR-90, senescence cells, log (dose) [M] -6.66, read-out: % Cell Survival): 3.1%; viability at 0.1 µM ([2]; IMR-90, senescence cells, log (dose) [M] -7, read-out: % Cell Survival): 4.88%; viability at 0.04677 µM ([2]; IMR-90, senescence cells, log (dose) [M] -7.33, read-out: % Cell Survival): 11.2%; viability at 0.02188 µM ([2]; IMR-90, senescence cells, log (dose) [M] -7.66, read-out: % Cell Survival): 70.8%; viability at 0.01 µM ([2]; IMR-90, senescence cells, log (dose) [M] -8, read-out: % Cell Survival): 86.1%
